Common to all, as to assay: growth of human tumour cells (NCI), 48 h
Assay [1] deals with TK-10 renal.
For assay [2], the system named is NCI/ADR-RES ovarian.
Assay [3] concerns IGROV1 ovarian.
The subject of assay [4] is UACC-62 melanoma.
Assay [5] relates to HOP-62 NSCLC.
Assay [6] relates to HT29 colon.
In assay [7] the test system is UO-31 renal.
The subject of assay [8] is KM12 colon.
The subject of assay [9] is NCI-H226 lung.
Assay [10] concerns SR leukemia.

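Protocol summary: plate cells (96-well), add compound at 5 concentrations, incubate 48 h, interpolate endpoints linearly. GI50 = concentration required for 50% inhibition of growth. TGI marks complete inhibition of growth.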

We go through ten compounds from PubChem BioAssay (NCI).

As to `N#CCCN1C/C(=C/c2ccc(Br)cc2)C(=O)/C(=C/c2ccc(Br)cc2)C1`, the GI50 in assay [1] was 2.45 µM; in assay [2], 3.47 µM; in assay [3], 2.02 µM; in assay [4], 1930 nM; in assay [5], 1660 nM; in assay [6], 0.338 µM. For the same compound, the GI50 in assay [7] is 1.47 µM. In addition, the TGI in [1] is 5.44 µM; in [2], > 100 µM; in assay [3], 5.35 µM; in assay [4], 4.52 µM; in assay [5], 3.57 µM; in assay [6], 1.24 µM. For the same compound, the TGI in assay [7] was found to be 2.92 µM.

For the compound `O=C(O)c1cccc(COc2ccc([N+](=O)[O-])cc2Cl)c1`, the GI50 in assay [1] is 27.2 µM; in [2] it was > 100 µM; in assay [3], 74.6 µM; in assay [4], > 100000 nM; in assay [8] it was > 100 µM; in [5], > 100000 nM. Further, in [7], the GI50 is > 100 µM. Also, the TGI in assay [1], in [2], in assay [3], in assay [4], in assay [8] and in [5] was > 100 µM throughout. Also, the TGI in assay [7] was > 100 µM.

On to `COc1ccc(C(CC(=O)c2ccc3c(c2)OCO3)c2c(O)c3ccccc3oc2=O)cc1OC` (centres undefined), for which the TGI in assay [1], in assay [2], in assay [3], in assay [4], in assay [8] and in [9] was > 100 µM each time. In addition, the TGI in assay [5], in assay [6] and in [7] was > 100 µM in each case.

As for `CCCC/C(=C\C1=C(C)C(=O)C(OC)=C(OC)C1=O)C(=O)O`, the GI50 is > 100 µM in assay [1]; > 100 µM in assay [2]; > 100 µM in assay [3]; > 100000 nM in [4]; > 100 µM in assay [8]; > 100000 nM in assay [5]. Besides, the GI50 in assay [6] and in [7] was > 100 µM each time. For the same compound, the TGI in assay [1], in assay [2], in [3], in assay [4], in [8] and in assay [5] was > 100 µM each time. Besides, the TGI in assay [6] and in assay [7] was > 100 µM each time.

As for `O=C1CCCN1c1ccccc1I(=O)=O`, the GI50 in assay [1] is > 100 µM; in assay [10] it was 95.6 µM; in assay [2], > 100 µM; in assay [3], > 100 µM; in assay [4] it was > 100000 nM; in assay [8] it was > 100 µM. Also, the GI50 in [9] was > 100000 nM; in assay [6] it was > 100 µM; in assay [7] it was > 100 µM. Moreover, the TGI in assay [1], in assay [10], in assay [2], in [3], in [4] and in assay [8] was > 100 µM each time. In addition, the TGI in [9], in [6] and in assay [7] was > 100 µM each time.

`COc1ccc(-c2nn(-c3cccc(Cl)c3)cc2-c2cc(-c3ccccc3)[nH]c(=O)c2C#N)cc1`: the GI50 in assay [1] was 1.47 µM; in assay [10], 7.74 µM; in assay [2], 2.14 µM; in [3] it was 1.89 µM; in assay [4], 2260 nM; in assay [8], > 50 µM. The figures for the GI50 in assay [9], in [5] and in [6] were 969 nM, 1170 nM and 19.5 µM, respectively. The TGI is 4.6 µM in [1]; 15.8 µM in assay [10]; 36 µM in [2]; 7.71 µM in [3]; 11.1 µM in [4]; > 50 µM in assay [8]. The results for the TGI in assay [9], in assay [5] and in assay [6] were > 50 µM, 2.87 µM and > 50 µM, respectively.

As for `CCCc1cc(=O)n2c(C(=O)Nc3ccc(Cl)cc3C)c(C(=O)Nc3ccc(F)cc3)sc2n1`, the GI50 in assay [1] is 12.3 µM; in assay [10], 0.943 µM; in assay [2], 10.6 µM; in assay [3], 9.31 µM; in assay [4], 2020 nM; in [8], 13.5 µM. The GI50 is 1540 nM in [5], 12.2 µM in [6] and 7.35 µM in [7]. For the same compound, the TGI is 39.3 µM in assay [1]; 3.75 µM in [10]; 59.7 µM in assay [2]; 33.6 µM in assay [3]; 12.1 µM in [4]; > 150 µM in [8]. Also, the TGI in [5] is 3.95 µM; in assay [6] it was > 150 µM; in assay [7] it was 30.4 µM.

`COC(=O)C(=O)C(C(C)=O)C(=O)NCc1ccc(OC)c(OC)c1` (centres undefined): the TGI in assay [1], in [10], in [3], in [4], in assay [8] and in assay [9] was > 100 µM each time. Also, the TGI in assay [5], in assay [6] and in assay [7] was > 100 µM in each case.

On to `COc1cc2c(/C=N\N=C(N)N)c[nH]c2cc1C`, for which the GI50 is 38.4 µM in [1]; 16.5 µM in assay [10]; 22 µM in assay [2]; 33.2 µM in assay [3]; 16000 nM in [4]; 14.9 µM in assay [8]. For the same compound, the GI50 in [9] was 17100 nM; in [6] it was 18 µM; in assay [7] it was > 100 µM. Further, the TGI in assay [1] is > 100 µM; in [10], 30.1 µM; in assay [2], 59.4 µM; in assay [3] it was > 100 µM; in [4] it was 33 µM; in [8], 28 µM. Also, the values for the TGI in assay [9], in [6] and in assay [7] were 71.8 µM, 37.1 µM and > 100 µM, respectively.

Take `ClC(Cl)=C1C(=C(Cl)Cl)C(Cl)(Cl)C1(Cl)Cl`: the TGI in assay [1] was determined as 11 µM; in assay [10], 3.46 µM; in assay [3] it was 18.9 µM; in assay [4] it was 5.36 µM; in [8], 18.4 µM; in [9] it was 1.89 µM. Moreover, the TGI in [5] was found to be 22.1 µM; in [6], 7.85 µM; in assay [7], 9.07 µM. Besides, the GI50 in assay [9] was 422 nM.
